Experimental data taken from patent publication US20130096100A1, “DI(ARYLAMINO)ARYL COMPOUND” (ASTELLAS PHARMA INC., priority 2007, published 2013).

Experiments:
MUSK = target: T1, MUSK (Homo sapiens, UniProt O15146); experiment: Kinase inhibition profiling, MUSK (Test Example 6); format: biochemical; set-up: purchased Carna Biosciences Inc., Japan (contract measurement); conditions: 100 nM; read-out: inhibitory activity against MUSK
T1 sequence (O15146 24-869): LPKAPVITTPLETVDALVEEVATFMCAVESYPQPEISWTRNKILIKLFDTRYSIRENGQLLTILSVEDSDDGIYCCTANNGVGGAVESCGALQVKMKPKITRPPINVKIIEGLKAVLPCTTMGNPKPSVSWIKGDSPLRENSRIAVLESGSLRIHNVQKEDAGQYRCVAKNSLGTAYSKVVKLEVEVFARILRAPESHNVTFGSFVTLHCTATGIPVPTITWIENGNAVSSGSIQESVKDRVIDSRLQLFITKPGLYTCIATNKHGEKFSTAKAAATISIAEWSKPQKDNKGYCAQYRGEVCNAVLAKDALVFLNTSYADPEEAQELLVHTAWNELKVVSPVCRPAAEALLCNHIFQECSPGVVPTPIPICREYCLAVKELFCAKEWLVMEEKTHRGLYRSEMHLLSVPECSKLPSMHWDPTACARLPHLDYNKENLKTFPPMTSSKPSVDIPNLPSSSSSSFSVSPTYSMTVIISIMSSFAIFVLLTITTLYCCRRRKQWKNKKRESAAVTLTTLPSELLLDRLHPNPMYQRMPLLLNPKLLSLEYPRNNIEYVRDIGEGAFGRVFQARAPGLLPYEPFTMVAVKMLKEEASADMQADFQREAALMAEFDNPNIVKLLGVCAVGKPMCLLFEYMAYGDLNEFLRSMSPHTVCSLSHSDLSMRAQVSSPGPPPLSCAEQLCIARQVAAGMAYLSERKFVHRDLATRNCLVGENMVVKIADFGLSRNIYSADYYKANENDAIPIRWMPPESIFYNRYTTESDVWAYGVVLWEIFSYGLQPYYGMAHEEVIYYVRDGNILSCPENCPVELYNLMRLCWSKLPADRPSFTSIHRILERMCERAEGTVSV

88 types of kinases = experiment: Kinase inhibition profiling, 88 types of kinases (Test Example 6); format: biochemical; conditions: concentration of 100 nM

For `COc1cc(N2CCC(N3CCN(C)CC3)CC2)ccc1Nc1ncnc(Nc2ccccc2S(=O)(=O)C(C)C)n1` [Example 23], the inhibition at 0.1 µM (MUSK) was under 20% and the “number of types of kinases (of 88) with 50% or more inhibitory activity” value (88 types of kinases) was 4 types of kinases.
